Results on one compound are retold here after patent US20080255206A1, “Rxr Agonists and Antagonists, Alone or in Combination with Ppar Ligands, in the Treatment of Metabolic and Cardiovascular Diseases” (priority 2005, published 2008).

One assay deals with T1, PPARγ/RXRα Heterodimer (Homo sapiens, UniProt P19793).
T1 construct: co-transfected with plasmids expressing the full length RXR heteropartner receptor; expressed in transfected cells
T1 sequence (P19793 1-462): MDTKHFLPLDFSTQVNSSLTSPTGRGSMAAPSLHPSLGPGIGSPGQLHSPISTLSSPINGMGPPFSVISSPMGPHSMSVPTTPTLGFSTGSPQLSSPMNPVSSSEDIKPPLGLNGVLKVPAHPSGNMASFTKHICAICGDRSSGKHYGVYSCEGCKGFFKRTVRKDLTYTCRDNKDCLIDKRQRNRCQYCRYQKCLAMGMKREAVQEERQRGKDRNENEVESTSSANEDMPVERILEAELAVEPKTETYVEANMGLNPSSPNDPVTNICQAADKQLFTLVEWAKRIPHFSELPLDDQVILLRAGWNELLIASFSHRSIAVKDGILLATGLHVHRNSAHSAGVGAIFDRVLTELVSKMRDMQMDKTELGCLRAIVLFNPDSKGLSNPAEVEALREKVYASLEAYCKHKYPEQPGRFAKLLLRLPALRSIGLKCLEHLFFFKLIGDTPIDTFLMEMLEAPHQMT
T1 sequence (P37231 1-505 partner): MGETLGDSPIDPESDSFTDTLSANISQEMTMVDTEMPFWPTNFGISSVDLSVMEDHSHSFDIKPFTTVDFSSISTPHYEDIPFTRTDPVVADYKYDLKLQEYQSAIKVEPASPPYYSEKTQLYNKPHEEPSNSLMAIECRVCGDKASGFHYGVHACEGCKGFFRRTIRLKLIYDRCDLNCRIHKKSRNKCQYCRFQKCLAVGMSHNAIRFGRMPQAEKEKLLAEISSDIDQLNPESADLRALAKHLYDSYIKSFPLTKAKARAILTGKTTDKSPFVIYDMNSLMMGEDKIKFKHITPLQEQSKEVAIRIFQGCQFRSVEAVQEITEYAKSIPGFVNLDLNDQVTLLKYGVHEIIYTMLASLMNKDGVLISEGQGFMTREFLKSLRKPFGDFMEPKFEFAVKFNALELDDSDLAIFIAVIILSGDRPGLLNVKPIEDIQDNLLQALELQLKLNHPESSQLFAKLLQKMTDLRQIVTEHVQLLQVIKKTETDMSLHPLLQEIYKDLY
Nature of the assay: PPARγ/RXRα heterodimer activation (transactivation) assay. It counts as cell-based. The method, boiled down:
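Cell-based luciferase transactivation: cells co-transfected with plasmids for full-length PPARγ, full-length RXR heteropartner and a luciferase reporter driven by multiple copies of the natural PPAR response element; ligand-dependent reporter activity measured.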

The next assay addresses T2, RARβ (Homo sapiens, UniProt P10826).
T2 sequence (P10826 183-417 limits assumed): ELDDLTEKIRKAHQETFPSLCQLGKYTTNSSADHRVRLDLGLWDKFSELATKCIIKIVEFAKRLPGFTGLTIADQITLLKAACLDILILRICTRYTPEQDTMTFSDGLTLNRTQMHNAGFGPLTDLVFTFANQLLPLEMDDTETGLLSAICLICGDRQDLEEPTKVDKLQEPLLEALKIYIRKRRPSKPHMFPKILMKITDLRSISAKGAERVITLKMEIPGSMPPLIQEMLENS
Nature of the assay: Retinoid activation assay, RARβ (COS-1 cells, SeAP reporter). The following applies: read-out: Activation EC50 RAR β. It counts as cell-based. The protocol: Chimeric RAR cDNAs are used for transfection which contain the DNA binding region of the estrogen receptor. As reporter system, the SeAp (secreted alkaline phosphatase) gene under control of the vitellogenin estrogen response element fused to the herpes simplex thymidinkinase promoter (vit-TK-SeAP) is used. The galactosidase expression vector pCH110 serves to correct for variation in transfection efficiency. […] At the end of the incubation, the cell supernatants are assayed for SeAP activity. Results are given as EC50 (nM), the concentration leading to half-maximal activation.

In assay [1] the target is T3, RXRα (Homo sapiens, UniProt P19793).
T3 sequence (P19793 1-462): T1 sequence (P19793 1-462)
Description: Retinoid activation assay, RXRα (Schneider SL-3 cells, luciferase reporter). It counts as cell-based. The conditions noted are these: read-out: Activation EC50 RXR α. In a few lines:
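Drosophila Schneider SL-3 cells transiently transfected (Ca-phosphate, 3-4 h before assay) with full-length RXR cDNA plus luciferase reporter driven by three rat CRBP RXR response elements on an alcohol dehydrogenase promoter. Supernatant luciferase read after incubation; EC50 is concentration giving half-maximal activation.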
(In general: In a reporter assay the amount or activity of a reporter protein is the signal.)

In assay [2] the target is T3, RXRα. Description: Retinoid binding assay, RXRα. More on the design: made in house; host or cells: E. coli. The following applies: [3H] 9-cis retinoic acid 20 nM; read-out: Binding Affinity IC50 RXR α. An excerpt: (§1) The DEF domains of RAR's and the full length RXR's, expressed in E.coli, are used to measure competitive retinoid binding. […] 9-cis retinoic acid (for RXR's), respectively. […] Separation of bound from free radioactivity is achieved by charcoal/dextran (RAR's) or by desalting columns (RXR's). […] Retinoid Activation Assays

In the next assay the target is T4, RXRγ (Homo sapiens, UniProt P48443).
T4 sequence (P48443 1-463): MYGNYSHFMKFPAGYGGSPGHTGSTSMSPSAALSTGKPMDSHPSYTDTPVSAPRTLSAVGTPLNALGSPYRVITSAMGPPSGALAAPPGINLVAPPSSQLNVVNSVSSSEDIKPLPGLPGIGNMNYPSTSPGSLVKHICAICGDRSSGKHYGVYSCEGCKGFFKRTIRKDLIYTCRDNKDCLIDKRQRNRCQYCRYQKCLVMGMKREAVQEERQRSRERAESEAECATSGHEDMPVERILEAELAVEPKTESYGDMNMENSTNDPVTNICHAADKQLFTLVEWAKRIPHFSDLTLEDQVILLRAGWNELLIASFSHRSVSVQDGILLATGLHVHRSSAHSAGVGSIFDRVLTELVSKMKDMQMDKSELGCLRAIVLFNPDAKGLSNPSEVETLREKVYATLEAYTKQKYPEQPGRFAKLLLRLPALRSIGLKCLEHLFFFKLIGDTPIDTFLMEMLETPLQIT
Nature of the assay: Retinoid binding assay, RXRγ. Also noted: made in house; host or cells: E. coli. The conditions noted are these: [3H] 9-cis retinoic acid 20 nM; read-out: Binding Affinity IC50 RXR γ.
Excerpt: as §1

For the compound `CC(/C=C/C1=C(c2ccc3c(c2)C(C)(C)CCC3(C)C)CCC1)=C\C(=O)O` [Compound 12, (2E,4E)-3-Methyl-5-[2-(5,5,8,8-tetramethyl-5,6,7,8-tetrahydro-naphthalen-2-yl)-cyclopent-1-enyl]-penta-2,4-dienoic acid], the values for the concentration giving a half-maximal response (EC50) at PPARγ/RXRα Heterodimer, at RARβ and on RXRα [1] were 7.7 nM, 84 nM and 9 nM, respectively. The figures for the IC50 on RXRα [2] and at RXRγ were 80 nM and 120 nM, respectively.
